Results: publication PMC7746945 (Neuro-Oncology, 2020)
Entries after “also recorded” stand apart in the source; their conditions may differ. Read-outs that look alike come from different tables or passages of the source.

How the values were obtained:
E2 cells = test: Clonogenic survival radiosensitization assay; format: cell-based, human; conditions: E2, MGMT methylated, 1–5 Gy
Protocol: (§1) Canine kidney epithelial cells, stably expressing human MDR1 cDNA (Madin-Darby canine kidney type II [MDCKII]–MDR1 cells) or empty vector (MDCKII control), were used to model the intact BBB and determine permeability coefficients of (^14C)-olaparib in the presence of ketoconazole (25 μM). Whole body autoradiography was performed on male pigmented rats after single oral administration of [^14C]-olaparib (15 mg/kg; 5 MBq/kg). For autoradiography studies, animal care and experiments were carried out in accordance with AstraZeneca guidelines, which comply with UK standards. […] Xenograft experiments were performed under the relevant UK Home Office Project Licence and carried out with ethical approval from the University of Glasgow under the Animal (Scientific Procedures) Act 1986 and the EU directive 2010. Mice were maintained in individually ventilated cages with environmental enrichment and following the guidelines of ARRIVE (Animal Research: Reporting of In Vivo Experiments). […] Ratiometric t-test analysis determined SER confidence intervals and P-values. Further details are available in the Supplementary Material.
(§2) Visible colonies containing at least 50 cells were counted 14–21 days after treatment and surviving fraction calculated. The linear quadratic model was fitted using maximum likelihood estimation and integrated to determine the mean inactivation dose (MID) for each experimental condition.

G1 cells = test: Clonogenic survival radiosensitization assay; format: cell-based, human; conditions: G1, MGMT methylated, olaparib 100 nM, 1–5 Gy
Protocol: as §1, §2

UVW cells = test: Clonogenic survival radiosensitization assay; format: cell-based, human; conditions: MGMT methylated, 1–5 Gy
Protocol: as §1, §2

T98G cells = test: Clonogenic survival radiosensitization assay; format: cell-based, human; conditions: MGMT unmethylated, 1–5 Gy
Protocol: as §1, §2

R10 cells = test: Clonogenic survival radiosensitization assay; format: cell-based, human; conditions: R10, MGMT methylated, 1–5 Gy
Protocol: as §1, §2

G7 cells = test: Clonogenic survival radiosensitization assay; format: cell-based, human; conditions: G7, MGMT methylated, 1–5 Gy
Protocol: as §1, §2

MDR1 [1] = molecular target: T1, MDR1 (Homo sapiens, UniProt P08183); test: Directional transport of [14C]-olaparib across MDCKII-MDR1 monolayers, with or without ketoconazole; format: in vitro ADME
T1 construct: host or cells: MDCKII (Madin-Darby canine kidney type II) cells stably expressing human MDR1 cDNA
Protocol: as §1
(§3) Apparent permeability coefficients were calculated for apical to basolateral (Papp a‒b) and basolateral to apical transport (Papp b‒a) as described in Methods. […] (B) Single oral doses of 15 mg/kg [14C]-olaparib were administered to male pigmented rats that were subsequently culled, sectioned, and subjected to whole body autoradiography at the timepoints shown. Radioactivity was excluded from the central nervous system in all animals at all timepoints. […] Blood, tumor, and contralateral (non tumor bearing) brain were harvested and snap frozen at the time points shown. […] Note different y-axis scales.
(§4) Monolayers were cultured in Dulbeco’s Modified Eagle Medium (DMEM) supplemented with glucose (4.5 g/L), 10% fetal calf serum, penicillin and streptomycin on semi-permeable filter inserts (Transwell plates 3401, Costar, Cambridge, MA) for three days. Under these conditions MDR1 localises to the apical plasma membrane. Monolayer integrity was assessed by transepithelial electrical resistance (TEER) measurement then inserts washed with Hank’s Balanced Salt Solution (HBSS) and transferred to 12-well plates containing HBSS (to measure apical to basal transport, a – b) or [14C]-olaparib diluted in HBSS (dose solution, to measure basal to apical transport, b – a). After addition of dose solution (a – b) or HBSS (b – a) to the apical chamber, samples of apical and basolateral compartments were collected immediately after dosing and after 120 minutes incubation. Three concentrations of 14C-olaparib were tested (0.1, 1 and 10 µM), each in three replicates. Radioactivity was determined by liquid scintillation counting. […] Transport of olaparib or reference substrate cimetidine was determined in MDCKII-BCRP cells. Apparent permeability coefficients (Papp) were calculated:
(§5) Efflux ratio = Papp b - a /a - b = Papp b - a / Papp a - b (mean)
MDCKII corrected efflux ratio =
Papp b - a /a - b ratio in transfected MDCKII cells
Papp b - a /a - b ratio in MDCKII control cells (mean)

MDR1 [2] = molecular target: T1, MDR1; test: as above; format: in vitro ADME; remark: listed apart in the source
[3] = Clinical PK: olaparib in tumor core, tumor margin and plasma of recurrent GBM patients (LC-MS); format: in vivo, human; conditions: for Kp: human, tumor and plasma, oral, ratio between tumor and plasma olaparib concentrations, surgical patients
Protocol: At neurosurgery, contrast-enhancing tumor regions identified on preoperative MRI scans were targeted for resection. Specimens were assessed by intraoperative cytology; 3 regions of viable, solid tumor from each patient were snap frozen for PK analysis by liquid chromatography mass spectrometry (LC-MS). In the expansion cohort, 5-ALA guided neurosurgery enabled discrimination of fluorescent “core” tissue from nonfluorescent “margin” tissue. Up to 3 tumor margin biopsies were taken from each patient, from each of which half was frozen for PK analysis and half fixed for histology.
100 mg q.d., n = 10; 150 mg q.d., n = 35; 200 mg b.i.d., n = 3. […] All measurements performed by LC-MS.

[4] = Directional transport of [14C]-olaparib across MDCKII control (empty vector) monolayers; format: in vitro ADME, canine; conditions: dog, MDCK
Protocol: as §1, §3, §4, §5

[5] = MDCK-MDR1, with ketoconazole 25 µM, read-out: Papp b-a + ketoconazole (SD)
[6] = 200 mg b.i.d. for 7 doses before resection, 9 samples from 3 patients
[7] = 21 tumor margin samples, 9 dose expansion patients

T1 sequence (P08183 whole entry): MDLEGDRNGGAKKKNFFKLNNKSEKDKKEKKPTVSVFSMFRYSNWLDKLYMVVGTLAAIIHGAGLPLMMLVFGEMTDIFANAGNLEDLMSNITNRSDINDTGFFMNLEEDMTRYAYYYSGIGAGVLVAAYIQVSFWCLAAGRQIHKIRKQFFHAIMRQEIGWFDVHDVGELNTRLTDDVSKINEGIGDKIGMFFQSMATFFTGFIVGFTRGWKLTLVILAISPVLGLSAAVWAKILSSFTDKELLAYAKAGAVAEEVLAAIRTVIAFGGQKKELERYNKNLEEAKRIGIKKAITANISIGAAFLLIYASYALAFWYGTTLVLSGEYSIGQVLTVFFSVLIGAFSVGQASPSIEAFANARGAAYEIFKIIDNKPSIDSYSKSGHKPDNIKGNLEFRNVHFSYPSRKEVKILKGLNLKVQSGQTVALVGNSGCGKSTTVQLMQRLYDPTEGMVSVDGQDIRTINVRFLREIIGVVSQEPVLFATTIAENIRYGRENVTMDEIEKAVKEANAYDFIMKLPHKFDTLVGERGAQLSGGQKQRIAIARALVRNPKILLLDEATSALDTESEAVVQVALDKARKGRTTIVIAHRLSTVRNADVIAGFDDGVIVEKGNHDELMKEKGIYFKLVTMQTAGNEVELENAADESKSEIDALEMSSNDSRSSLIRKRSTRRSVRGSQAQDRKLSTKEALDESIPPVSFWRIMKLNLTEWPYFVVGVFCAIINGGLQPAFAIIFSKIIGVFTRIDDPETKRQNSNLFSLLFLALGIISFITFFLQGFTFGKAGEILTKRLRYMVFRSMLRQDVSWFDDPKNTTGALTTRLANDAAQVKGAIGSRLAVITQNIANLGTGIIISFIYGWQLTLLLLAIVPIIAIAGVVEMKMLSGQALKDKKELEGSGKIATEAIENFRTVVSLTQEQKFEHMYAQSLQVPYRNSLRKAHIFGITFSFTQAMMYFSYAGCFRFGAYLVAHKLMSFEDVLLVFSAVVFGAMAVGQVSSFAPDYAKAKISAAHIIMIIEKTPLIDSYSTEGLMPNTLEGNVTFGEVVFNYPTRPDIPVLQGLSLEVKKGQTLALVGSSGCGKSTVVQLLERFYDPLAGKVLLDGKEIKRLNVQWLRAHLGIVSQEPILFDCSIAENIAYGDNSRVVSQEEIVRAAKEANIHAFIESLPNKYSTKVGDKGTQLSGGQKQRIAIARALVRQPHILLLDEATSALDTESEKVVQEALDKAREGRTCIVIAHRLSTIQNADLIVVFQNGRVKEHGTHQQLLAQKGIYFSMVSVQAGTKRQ

O=C(c1cc(Cc2n[nH]c(=O)c3ccccc23)ccc1F)N1CCN(C(=O)C2CC2)CC1 [olaparib, 4-[3-(4-cyclopropanecarbonylpiperazine-1-carbonyl)-4-fluorobenzyl]-2H-phthalazin-1-one]
SER (95% CI) 100nM (E2 cells; olaparib 100 nM): 1.237 (1.065 - 1.441) | SER (95% CI) 500nM (E2 cells; olaparib 500 nM): 1.221 (1.076 - 1.378) | SER (95% CI) 100nM (G1 cells): 1.225 (1.01 - 1.513) | SER (95% CI) 100nM (UVW cells; olaparib 100 nM): 1.478 (1.28 - 1.726) | SER (95% CI) 500nM (UVW cells; olaparib 500 nM): 1.695 (1.407 - 2.098) | SER (95% CI) 100nM (T98G cells; olaparib 100 nM): 1.42 (1.128 - 1.883) | SER (95% CI) 500nM (T98G cells; olaparib 500 nM): 1.584 (1.464 - 1.71) | SER (95% CI) 100nM (R10 cells; olaparib 100 nM): 1.266 (0.991 - 1.565) | SER (95% CI) 500nM (R10 cells; olaparib 500 nM): 1.281 (0.966 - 1.721) | SER (95% CI) 100nM (G7 cells; olaparib 100 nM): 1.105 (1.018 - 1.200) | SER (95% CI) 500nM (G7 cells; olaparib 500 nM): 1.188 (1.029 - 1.390) | Papp A→B at 120 min, 1 µM (MDR1 [1]; MDCK-MDR1): 0.28 ×10⁻⁶ cm/s | Papp A→B at 120 min, 10 µM (MDR1 [1]; MDCK-MDR1): 0.58 ×10⁻⁶ cm/s | Papp B→A at 120 min, 1 µM (MDR1 [1]; MDCK-MDR1): 40.6 ×10⁻⁶ cm/s | Papp B→A at 120 min, 10 µM (MDR1 [1]; MDCK-MDR1, read-out: Papp b-a (SD)): 39.4 ×10⁻⁶ cm/s | Papp B→A at 120 min, 1 µM (MDR1 [1]; [5]): 24.1 ×10⁻⁶ cm/s | Papp B→A at 120 min, 10 µM (MDR1 [1]; [5]): 17.1 ×10⁻⁶ cm/s | Papp A→B at 120 min, 3 µM (MDR1 [2]; human, MDCK-MDR1): 0.53 ×10⁻⁶ cm/s | Papp B→A at 120 min, 3 µM (MDR1 [2]; human, MDCK-MDR1, with ketoconazole 25 µM, read-out: Papp b-a + ketoconazole (SD)): 16.3 ×10⁻⁶ cm/s | Papp B→A at 120 min, 3 µM (MDR1 [2]; human, MDCK-MDR1, read-out: Papp b-a (SD)): 42.7 ×10⁻⁶ cm/s | MDR1 substrate status (MDR1 [2]; olaparib 1–10 µM): substrate for multidrug resistance protein 1; also recorded: substrate for MDR1 | reduction of apparent permeability of MDCKII-MDR1 cells to olaparib by ketoconazole (MDR1 [2]; olaparib 1–10 µM, ketoconazole 25 µM): 40–62% | mean olaparib concentration in stage 1 tumor samples [3, 6]: 471 nM | olaparib concentration in stage 1 tumor samples, range [3, 6]: 164 to 992 nM | tumor margin specimens with olaparib detected ([3]; 9 patients): 21/21 | tumor margin olaparib concentration, median [3, 7]: 512.3 nM | tumor margin olaparib concentration, range [3, 7]: 97 to 1237 nM | tumor core specimens with olaparib detected ([3]; 27 patients): 71/71 | tumor core olaparib concentration, range ([3]; 71 tumor core samples, 27 surgical patients): 97 to 1374 nM | tumor core olaparib concentration, median ([3]; 71 tumor core samples, 27 surgical patients, 3–5 hours after final preoperative dose): 496 nM | Kp ([3]; mean): 0.25 | Kp ([3]; range): 0.01 to 0.9 | tumor olaparib concentrations, range in all specimens ([3]; tumor core and margin): 100 to 1000 nM | Papp A→B at 120 min, 1 µM [4]: 1.66 ×10⁻⁶ cm/s | Papp A→B at 120 min, 3 µM [4]: 2.23 ×10⁻⁶ cm/s | Papp A→B at 120 min, 10 µM [4]: 2.46 ×10⁻⁶ cm/s | Papp B→A at 120 min, 1 µM [4]: 32 ×10⁻⁶ cm/s | Papp B→A at 120 min, 3 µM [4]: 29.7 ×10⁻⁶ cm/s | Papp B→A at 120 min, 10 µM [4]: 28.1 ×10⁻⁶ cm/s
